One assay addresses T1, SMARCA4-HiBiT (Homo sapiens, UniProt P51532).
T1 construct: SMARCA4-HiBiT knock-in Hela monoclonal cell (CS3023226); host or cells: HeLa monoclonal knock-in line (CRISPR HiBiT knock-in at the endogenous locus, heterozygous)
Kind of assay: SMARCA4 HiBiT degradation assay in HeLa cells. Type of assay: cell-based. Conditions: 18 hours incubation; for DC50: read-out: HeLa-HiBit-SM4 DC50; for Dmax: HeLa, read-out: HeLa-HiBit-SM4 Dmax (%). Summed up: (§1)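 HeLa monoclonal lines with heterozygous HiBiT knock-in were seeded at 2500 cells/well in EMEM with 10% FBS and treated with compound for 18 h at 37 °C. Remaining tagged protein was measured by Nano-Glo HiBiT lytic luminescence after 30–60 min at RT, and values came from curve fitting.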
(HiBiT is a short tag that completes a luciferase, so light tracks the accessible tagged protein.)

A further assay has as its target T2, SMARCA2-HiBiT (Homo sapiens, UniProt P51531).
T2 construct: SMARCA2-HiBiT knock-in Hela monoclonal cell (CS302366); host or cells: HeLa monoclonal knock-in line (CRISPR HiBiT knock-in at the endogenous locus, heterozygous)
Kind of assay: SMARCA2 HiBiT degradation assay in HeLa cells. Type of assay: cell-based. The note with it: 18 hours incubation; for DC50: read-out: HeLa_HiBit-SM2 DC50; for Dmax: HeLa, read-out: HeLa-HiBit-SM2 Dmax (%). The procedure, abridged: as §1

Structures are written as SMILES.

T1 sequence (P51532 whole entry): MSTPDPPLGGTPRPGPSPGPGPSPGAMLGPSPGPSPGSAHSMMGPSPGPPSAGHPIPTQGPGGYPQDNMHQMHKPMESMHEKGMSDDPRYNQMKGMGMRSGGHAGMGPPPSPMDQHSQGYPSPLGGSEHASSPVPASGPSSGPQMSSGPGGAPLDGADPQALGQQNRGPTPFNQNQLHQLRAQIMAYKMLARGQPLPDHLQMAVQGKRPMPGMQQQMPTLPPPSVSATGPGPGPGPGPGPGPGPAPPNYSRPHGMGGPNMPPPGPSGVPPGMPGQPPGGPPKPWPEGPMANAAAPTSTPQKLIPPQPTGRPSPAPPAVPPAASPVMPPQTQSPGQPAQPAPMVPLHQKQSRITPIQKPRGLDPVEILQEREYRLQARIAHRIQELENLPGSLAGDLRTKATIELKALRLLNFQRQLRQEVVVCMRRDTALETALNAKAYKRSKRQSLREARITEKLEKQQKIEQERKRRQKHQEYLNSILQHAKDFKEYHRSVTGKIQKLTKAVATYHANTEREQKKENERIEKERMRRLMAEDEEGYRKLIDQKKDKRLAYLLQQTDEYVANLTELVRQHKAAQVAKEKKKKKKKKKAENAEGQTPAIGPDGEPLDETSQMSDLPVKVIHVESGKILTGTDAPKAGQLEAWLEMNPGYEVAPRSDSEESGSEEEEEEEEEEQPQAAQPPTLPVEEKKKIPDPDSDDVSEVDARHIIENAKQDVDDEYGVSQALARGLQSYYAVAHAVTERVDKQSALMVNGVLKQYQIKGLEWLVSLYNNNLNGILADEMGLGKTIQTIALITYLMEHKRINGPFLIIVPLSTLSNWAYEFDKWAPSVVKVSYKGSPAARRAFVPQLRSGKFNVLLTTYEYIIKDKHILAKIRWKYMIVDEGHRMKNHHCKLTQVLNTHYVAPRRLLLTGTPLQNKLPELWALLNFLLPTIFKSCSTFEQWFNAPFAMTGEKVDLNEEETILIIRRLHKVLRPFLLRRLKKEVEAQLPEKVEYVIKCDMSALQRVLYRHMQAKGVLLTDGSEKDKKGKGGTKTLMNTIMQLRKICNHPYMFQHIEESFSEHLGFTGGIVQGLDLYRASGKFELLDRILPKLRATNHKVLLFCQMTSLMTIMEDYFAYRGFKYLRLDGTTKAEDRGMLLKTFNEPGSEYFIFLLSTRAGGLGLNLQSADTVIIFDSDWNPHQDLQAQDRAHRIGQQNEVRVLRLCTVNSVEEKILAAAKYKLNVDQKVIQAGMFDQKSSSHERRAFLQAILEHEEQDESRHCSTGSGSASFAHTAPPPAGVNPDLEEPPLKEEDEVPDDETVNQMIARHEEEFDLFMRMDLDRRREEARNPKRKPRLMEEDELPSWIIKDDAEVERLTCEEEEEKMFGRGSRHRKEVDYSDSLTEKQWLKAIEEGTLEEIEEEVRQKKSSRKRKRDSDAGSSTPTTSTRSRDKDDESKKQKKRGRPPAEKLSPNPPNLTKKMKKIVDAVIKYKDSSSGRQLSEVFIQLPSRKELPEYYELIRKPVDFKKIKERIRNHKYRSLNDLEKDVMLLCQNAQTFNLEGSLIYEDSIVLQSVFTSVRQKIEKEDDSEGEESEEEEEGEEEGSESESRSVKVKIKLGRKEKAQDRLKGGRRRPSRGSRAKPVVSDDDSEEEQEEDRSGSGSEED
T2 sequence (P51531 whole entry): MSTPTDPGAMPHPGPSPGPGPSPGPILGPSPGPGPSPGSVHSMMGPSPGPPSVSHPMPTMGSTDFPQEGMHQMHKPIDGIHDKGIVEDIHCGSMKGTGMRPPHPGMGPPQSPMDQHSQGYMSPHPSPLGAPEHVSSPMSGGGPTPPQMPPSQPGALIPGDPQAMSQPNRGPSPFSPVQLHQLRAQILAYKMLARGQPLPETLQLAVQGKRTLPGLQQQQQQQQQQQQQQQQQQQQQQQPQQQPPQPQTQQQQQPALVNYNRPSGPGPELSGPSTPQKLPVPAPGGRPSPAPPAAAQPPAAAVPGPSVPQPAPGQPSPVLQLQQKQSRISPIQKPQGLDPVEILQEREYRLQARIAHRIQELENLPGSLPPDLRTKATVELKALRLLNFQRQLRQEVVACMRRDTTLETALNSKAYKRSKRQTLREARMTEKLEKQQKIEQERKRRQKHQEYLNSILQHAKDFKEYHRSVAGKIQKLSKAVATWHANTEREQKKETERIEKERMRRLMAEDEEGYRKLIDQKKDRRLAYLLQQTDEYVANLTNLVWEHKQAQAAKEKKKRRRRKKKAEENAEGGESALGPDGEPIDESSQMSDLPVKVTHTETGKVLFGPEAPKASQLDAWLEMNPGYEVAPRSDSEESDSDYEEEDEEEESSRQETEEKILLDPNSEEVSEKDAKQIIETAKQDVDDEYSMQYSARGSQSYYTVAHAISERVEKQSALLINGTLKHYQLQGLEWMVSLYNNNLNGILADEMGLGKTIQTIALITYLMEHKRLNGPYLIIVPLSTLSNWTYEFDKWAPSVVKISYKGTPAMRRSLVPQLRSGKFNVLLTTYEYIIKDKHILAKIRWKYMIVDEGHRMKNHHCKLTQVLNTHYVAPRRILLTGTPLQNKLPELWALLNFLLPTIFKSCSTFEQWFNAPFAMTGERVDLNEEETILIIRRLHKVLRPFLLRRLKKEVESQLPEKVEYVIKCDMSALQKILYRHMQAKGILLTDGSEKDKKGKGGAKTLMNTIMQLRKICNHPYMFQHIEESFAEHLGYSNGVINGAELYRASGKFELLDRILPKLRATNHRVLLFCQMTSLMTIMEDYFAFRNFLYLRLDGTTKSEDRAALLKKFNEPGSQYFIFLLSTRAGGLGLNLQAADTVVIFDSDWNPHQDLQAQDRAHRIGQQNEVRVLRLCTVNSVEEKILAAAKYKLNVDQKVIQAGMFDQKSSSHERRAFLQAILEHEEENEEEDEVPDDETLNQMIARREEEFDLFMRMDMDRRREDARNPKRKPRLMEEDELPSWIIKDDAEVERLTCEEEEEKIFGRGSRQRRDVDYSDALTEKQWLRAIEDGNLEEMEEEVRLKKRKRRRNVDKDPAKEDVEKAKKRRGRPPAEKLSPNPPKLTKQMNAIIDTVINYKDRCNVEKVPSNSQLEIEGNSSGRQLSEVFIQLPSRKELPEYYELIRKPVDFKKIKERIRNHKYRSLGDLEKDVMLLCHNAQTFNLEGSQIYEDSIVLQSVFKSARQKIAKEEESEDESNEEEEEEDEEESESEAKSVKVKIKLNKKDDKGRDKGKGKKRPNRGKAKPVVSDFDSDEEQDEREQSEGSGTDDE

For orientation: DC50 means the concentration at which degradation of the target reaches its halfway point. Usually Dmax stands for the largest share of the target that was removed. With `C[C@@H]1CN(CC2CCN(c3ccc4c(c3)C(=O)N(C3CCC(=O)NC3=O)C4)CC2)CCN1C(=O)N1CCN2c3cc(-c4ccccc4O)nnc3NC[C@H]2C1` (stereo partly drawn) [Example 114, 3-(6-(4-(((R)-4-((S)-2-(2-hydroxyphenyl)-6,6a,7,8,9,10-hexahydro-5H-pyrazino[1′,2′:4,5]pyrazino[2,3-c]pyridazine-8-carbonyl)-3-methylpiperazin-1-yl)methyl)piperidin-1-yl)-1-oxoisoindolin-2-yl)piperidine-2,6-dione], the DC50 at SMARCA4-HiBiT and on SMARCA2-HiBiT was below 10 nM in each case. Moreover, the Dmax on SMARCA4-HiBiT was 75 to 85%; at SMARCA2-HiBiT, above 85%.

With `C[C@@H]1CN(CC2CCN(c3ccc4c(c3)C(=O)N(C3CCC(=O)NC3=O)C4=O)CC2)CCN1C(=O)N1CCN2c3cc(-c4ccccc4O)nnc3NC[C@H]2C1` (stereo partly drawn) [Example 115, 2-(2,6-dioxopiperidin-3-yl)-5-(4-(((R)-4-((S)-2-(2-hydroxyphenyl)-6,6a,7,8,9,10-hexahydro-5H-pyrazino[1′,2′:4,5]pyrazino[2,3-c]pyridazine-8-carbonyl)-3-methyl-piperazin-1-yl)methyl)piperidin-1-yl)isoindoline-1,3-dione], on SMARCA4-HiBiT, the DC50 was below 10 nM and the Dmax is 50 to 75%. At SMARCA2-HiBiT, the DC50 is below 10 nM and the Dmax lay in the range of 50 to 75%.

`C[C@H]1CN(CC2CCN(c3ccc4c(c3)C(=O)N(C3CCC(=O)NC3=O)C4=O)CC2)CCN1C(=O)N1CCN2c3cc(-c4ccccc4O)nnc3NC[C@H]2C1` (stereo partly drawn) [Example 116, 2-(2,6-dioxopiperidin-3-yl)-5-(4-(((S)-4-((S)-2-(2-hydroxyphenyl)-6,6a,7,8,9,10-hexahydro-5H-pyrazino[1′,2′:4,5]pyrazino[2,3-c]pyridazine-8-carbonyl)-3-methyl-piperazin-1-yl)methyl)piperidin-1-yl)isoindoline-1,3-dione]: at SMARCA4-HiBiT, the DC50 is below 10 nM and the Dmax was in the range of 50 to 75%. At SMARCA2-HiBiT, the half-maximal degradation concentration (DC50) is below 10 nM and the Dmax lay within 75 to 85%.

As to `O=C1CCC(N2C(=O)c3ccc(N4CCOC(CN5CCN(C(=O)N6CCN7c8cc(-c9ccccc9O)nnc8NC[C@H]7C6)CC5)C4)cc3C2=O)C(=O)N1` (stereo partly drawn) [Example 117, 2-(2,6-dioxopiperidin-3-yl)-5-(2-((4-((S)-2-(2-hydroxyphenyl)-6,6a,7,8,9,10-hexahydro-5H-pyrazino[1′,2′:4,5]pyrazino[2,3-c]pyridazine-8-carbonyl)piperazin-1-yl)methyl)morpholino)isoindoline-1,3-dione], the figures for the half-maximal degradation concentration (DC50) at SMARCA4-HiBiT and at SMARCA2-HiBiT were 10 to 100 nM and below 10 nM, respectively. The Dmax on SMARCA4-HiBiT is at most 50%; at SMARCA2-HiBiT, 75 to 85%.

Take `O=C1CCC(N2Cc3ccc(C4CCN(CCN5CCC(N6CCN7c8cc(-c9ccccc9O)nnc8NC[C@H]7C6)CC5)CC4)cc3C2=O)C(=O)N1` (stereo partly drawn) [Example 118, 3-(6-(1-(2-(4-((S)-2-(2-hydroxyphenyl)-5,6,6a,7,9,10-hexahydro-8H-pyrazino[1′,2′:4,5]pyrazino[2,3-c]pyridazin-8-yl)piperidin-1-yl)ethyl)piperidin-4-yl)-1-oxoisoindolin-2-yl)piperidine-2,6-dione]: the DC50 at SMARCA4-HiBiT was 10 to 100 nM; at SMARCA2-HiBiT, below 10 nM. Moreover, the Dmax on SMARCA4-HiBiT and on SMARCA2-HiBiT was above 85% throughout.

In the case of `O=C1CCC(N2Cc3ccc(N4CCN(CCN5CCC(CN6CCN7c8cc(-c9ccccc9O)nnc8NC[C@H]7C6)CC5)CC4)cc3C2=O)C(=O)N1` (stereo partly drawn) [Example 119, 3-(6-(4-(2-(4-(((S)-2-(2-hydroxyphenyl)-5,6,6a,7,9,10-hexahydro-8H-pyrazino[1′,2′:4,5]pyrazino[2,3-c]pyridazin-8-yl)methyl)piperidin-1-yl)ethyl)piperazin-1-yl)-1-oxoisoindolin-2-yl)piperidine-2,6-dione], at SMARCA4-HiBiT, the DC50 was below 10 nM and the Dmax was above 85%. In addition, at SMARCA2-HiBiT, the DC50 was below 10 nM and the maximal degradation (Dmax) is above 85%.

For `O=C1CCC(N2Cc3ccc(C4CCN(CCN5CCC(CN6CCN7c8cc(-c9ccccc9O)nnc8NC[C@H]7C6)CC5)CC4)cc3C2=O)C(=O)N1` (stereo partly drawn) [Example 120, 3-(6-(1-(2-(4-(((S)-2-(2-hydroxyphenyl)-5,6,6a,7,9,10-hexahydro-8H-pyrazino[1′,2′:4,5]pyrazino[2,3-c]pyridazin-8-yl)methyl)piperidin-1-yl)ethyl)piperidin-4-yl)-1-oxoisoindolin-2-yl) piperidine-2,6-dione], at SMARCA4-HiBiT, the 50% degradation concentration (DC50) was in the range of 10 to 100 nM and the Dmax was above 85%. Further, on SMARCA2-HiBiT, the DC50 was below 10 nM and the greatest degradation seen (Dmax) is above 85%.

Consider `O=C1CCC(N2Cc3ccc(N4CCN(CCCN5CCC(CN6CCN7c8cc(-c9ccccc9O)nnc8NC[C@H]7C6)CC5)CC4)cc3C2=O)C(=O)N1` (stereo partly drawn) [Example 121, 3-(6-(4-(3-(4-(((S)-2-(2-hydroxyphenyl)-5,6,6a,7,9,10-hexahydro-8H-pyrazino[1′,2′:4,5]pyrazino[2,3-c]pyridazin-8-yl)methyl)piperidin-1-yl)propyl)piperazin-1-yl)-1-oxoisoindolin-2-yl)piperidine-2,6-dione], for which the figures for the DC50 on SMARCA4-HiBiT and on SMARCA2-HiBiT were 10 to 100 nM and below 10 nM, respectively. For the same compound, the results for the Dmax on SMARCA4-HiBiT and at SMARCA2-HiBiT were 75 to 85% and above 85%, respectively.

`O=C1CCC(N2Cc3ccc(C4CCN(CCCN5CCC(CN6CCN7c8cc(-c9ccccc9O)nnc8NC[C@H]7C6)CC5)CC4)cc3C2=O)C(=O)N1` (stereo partly drawn) [Example 122, 3-(6-(1-(3-(4-(((S)-2-(2-hydroxyphenyl)-5,6,6a,7,9,10-hexahydro-8H-pyrazino[1′,2′:4,5]pyrazino[2,3-c]pyridazin-8-yl)methyl)piperidin-1-yl)propyl)piperidin-4-yl)-1-oxoisoindolin-2-yl)piperidine-2,6-dione]: the DC50 at SMARCA4-HiBiT and at SMARCA2-HiBiT was 10 to 100 nM throughout. Besides, the greatest degradation seen (Dmax) at SMARCA4-HiBiT is 75 to 85%; on SMARCA2-HiBiT, above 85%.

Turning to `CC(C)(C)C(=O)OCN1C(=O)CCC(N2C(=O)c3cccc(N4CCC(N5CCC(N6CCN7c8cc(-c9ccccc9O)nnc8NC[C@H]7C6)CC5)CC4)c3C2=O)C1=O` (stereo partly drawn) [Example 123, (3-(4-(4-((S)-2-(2-hydroxyphenyl)-5,6,6a,7,9,10-hexahydro-811-pyrazino [1′,2′:4,5]pyrazino[2,3-c]pyridazin-8-yl)-[1,4′-bipiperidin]-1′-yl)-1,3-dioxoisoindolin-2-yl)-2,6-dioxopiperidin-1-yl)methyl pivalate], the DC50 on SMARCA4-HiBiT and on SMARCA2-HiBiT was below 10 nM in each case. The maximal degradation (Dmax) at SMARCA4-HiBiT and on SMARCA2-HiBiT was 75 to 85% in each case.

Turning to `CC1CN(CCCC2CCN(c3cccc4c3C(=O)N(C3CCC(=O)NC3=O)C4=O)CC2)CCC1N1CCN2c3cc(-c4ccccc4O)nnc3NC[C@H]2C1` (stereo partly drawn) [Example 124, 2-(2,6-dioxopiperidin-3-yl)-4-(4-(3-(4-((S)-2-(2-hydroxyphenyl)-5,6,6a,7,9,10-hexahydro-811-pyrazino[1′,2′:4,5]pyrazino[2,3-c]pyridazin-8-yl)-3-methylpiperidin-1-yl)propyl)piperidin-1-yl) isoindoline-1,3-dione], the DC50 at SMARCA4-HiBiT and at SMARCA2-HiBiT was below 10 nM throughout. Further, the Dmax at SMARCA4-HiBiT and at SMARCA2-HiBiT was 50 to 75% each time.

For the origin of these results see patent US12448389B2, “BRM targeting compounds and associated methods of use” (Prelude Therapeutics Incorporated, priority 2020, dated 2025).
